Experimental findings from patent US20250134895A1, “METHODS AND COMPOSITIONS FOR TREATING ALPHA-SYNUCLEIN-MEDIATED NEURODEGENERATION” (UNIVERSITY HEALTH NETWORK, priority 2021, published 2025) are described below.

The assay relates to transgenic A30P α-synuclein C. elegans. Kind of assay: Coiler score and locomotion of C. elegans expressing A30P α-synuclein in dopaminergic neurons. It is filed as in vivo, Caenorhabditis elegans. The procedure:
Using high-resolution, multi-worm tracking with custom image processing, methods were developed for semi-automated and blinded scoring of circularity for a population of simultaneously recorded animals (n=10 per recording). A coiler score was determined for the population tested by first calculating the circularity value for each animal in each frame of video and then calculating the proportion of circularity values >0.6. […] The coiler phenotype is an abnormal motor behaviour previously reported for several unc C. elegans strains with mutations affecting neuronal function.
Animals were synchronized by isolating eggs using alkaline hypochlorite treatment and hatching overnight. Larvae were plated onto NGM agar plates with OP50 and grown for 4 days before recording locomotion. For individual C. elegans recordings, a single adult animal was randomly picked, washed for 1 to 2 minutes in M9 buffer, and then transferred to a fresh NGM plate without food for imaging. Video images were acquired (2 frames per second) for up to 6 minutes using a sCMOS camera (pco.edge, PCO) mounted on a stereomicroscope (Olympus MVX10 MacroView) controlled using the μManager software.^55 A total of 40 individual animals were imaged for each strain. For C. elegans population recordings, ten adult animals were randomly removed using an eyelash pick, washed for 1 minute in M9 buffer, and then transferred to a fresh NGM plate without food, with a ring of copper sulfate solution (150 mM) around the area of recording (a chemorepellent to keep the animals in the recording frame). Exploratory locomotion was recorded using a CCD camera (GX1920, Allied Vision) which was attached to a dissecting stereomicroscope (Leica M165C, 1.0× PlanApo lens). A Labview program captured video (2 frames per second) at 1936×1456 resolution. Using ImageJ, the displacement, perimeter, and area of each animal was calculated, from which a circularity value was computed using the following formula: circularity=4π(A/P^2), where A is the area of the animal's body and P is the perimeter of the animal's body (both expressed in arbitrary pixel units). […] Using MATLAB (Mathworks), various behavioural metrics including the coiler score were calculated, which is the percentage of frames with a circularity value >0.6. Speed was automatically computed from the ImageJ based WrmTrk plugin as the distance travelled by each animal (in pixels) over the amount of time that it was tracked (in seconds).56 Average speed was determined by calculating the weighted average of each tracked animal's speed within a single population of animals. On the day of the recording for dopamine or raclopride treatment, adult animals were washed for 1 minute in M9 buffer, treated in a solution containing either drug for 1 minute, and then placed onto fresh NGM plates without food, with a copper sulfate solution ring around the area of recording. […] Drug plates were prepared by adding each drug to LB medium with OP50 before spreading onto fresh NGM plates. The solvent used to dissolve each drug was used as vehicle control for the drug treatment experiments (M9 buffer for dopamine, distilled water for raclopride, DMSO for all other drugs).
After 72 hours of drug treatment, animals were randomly picked, washed, and recorded. A total of ten worms were recorded per population, and twelve populations were recorded for each of the four treatment groups. Locomotion was recorded for each population over a total of 1800 frames over three minutes. The animal's movement speed, area, and perimeter were automatically analyzed as previously described. Coiler score was calculated automatically using a ratio of the animal's area to perimeter, where a higher coiler score would represent a greater degree of α-synuclein-induced dopaminergic neuron dysfunction in vivo.

On to `Nc1nc(NC2CC2)c2ncn([C@H]3C=C[C@@H](CO)C3)c2n1` [Abacavir, abacavir], for which the locomotor speed entry (100 μM of drug) was “No significant differences”. For the setting “100 μM, 72 hr, vs DMSO vehicle”, the “effect on coiling / coiler score” value is “significantly reduced”.
